Laboratory results reported in ChEMBL document CHEMBL5120860, “Ansellone J, a Potent in Vitro and ex Vivo HIV-1 Latency Reversal Agent Isolated from a Phorbas sp. Marine Sponge” (J Nat Prod, 2022).

Legend:
[1] = Inhibition of HIV-1 latency reversal in GFP-fused human J-lat 9.2 cells at 10 uM incubated for 24 hrs in presence of pan-PKC inhibitor Go 6983 by flow cytometry analysis relative to control; format: functional; conditions: Human immunodeficiency virus 1, J-Lat 9.2
[2] = Cytotoxicity against human CD4+ T cells derived from cARC-suppressed donors with HIV assessed as cell viability at 10 uM incubated for 24 hrs by trypan blue staining based analysis relative to control; format: toxicity, CD4+ve Th; conditions: primary CD4+ T cells from cART-suppressed donors with HIV, read-out: Activity
[3] = tested on: Human immunodeficiency virus 1; experiment: Reversal of HIV-1 latency in human CD4+ T cells derived from cARC-suppressed donors with HIV assessed as increase in viral RNA copies measured per ml of supernatant at 10 uM incubated for 24 hrs by qRT-PCR analysis (reference value: 191 +/- 321); format: functional, CD4+ve Th
[4] = tested on: Human immunodeficiency virus 1; experiment: Reversal of HIV-1 latency in human CD4+ T cells derived from cARC-suppressed donors with HIV assessed as fold increase in viral RNA copies measured per ml of supernatant at 10 uM incubated for 24 hrs by qRT-PCR analysis; format: functional, CD4+ve Th
[5] = tested on: Human immunodeficiency virus 1; experiment: Reversal of HIV-1 latency infected in GFP-fused human J-Lat 9.2 cells assessed as increase in GFP expression at 10 uM incubated for 24 hrs by flow cytometry analysis relative to control; format: functional
[6] = tested on: Human immunodeficiency virus 1; experiment: Reversal of HIV-1 latency infected in GFP-fused human J-Lat 9.2 cells assessed as increase in GFP expression at 30 uM incubated for 24 hrs by flow cytometry analysis relative to control; format: functional
[7] = tested on: Human immunodeficiency virus 1; experiment: Reversal of HIV-1 latency in human CD4+ T cells derived from cARC-suppressed donors with HIV assessed as fold increase in viral RNA copies measured per ml of supernatant at 1 uM incubated for 24 hrs by qRT-PCR analysis; format: functional, CD4+ve Th
[8] = tested on: Human immunodeficiency virus 1; experiment: Reversal of HIV-1 latency infected in GFP-fused human J-Lat 9.2 cells assessed as increase in GFP expression at 3 uM incubated for 24 hrs by flow cytometry analysis relative to control; format: functional
[9] = Inhibition of HIV-1 latency reversal in GFP-fused human J-lat 9.2 cells at 1 uM incubated for 24 hrs in presence of pan-PKC inhibitor Go 6983 by flow cytometry analysis relative to control; format: functional; conditions: Human immunodeficiency virus 1, J-Lat 9.2
[10] = tested on: Human immunodeficiency virus 1; experiment: Reversal of HIV-1 latency in human CD4+ T cells derived from cARC-suppressed donors with HIV assessed as increase in viral RNA copies measured per ml of supernatant at 1 uM incubated for 24 hrs by qRT-PCR analysis (reference value: 191 +/- 321); format: functional, CD4+ve Th
[11] = Cytotoxicity against human CD4+ T cells derived from cARC-suppressed donors with HIV assessed as cell viability at 1 uM incubated for 24 hrs by trypan blue staining based analysis relative to control; format: toxicity, CD4+ve Th; conditions: primary CD4+ T cells from cART-suppressed donors with HIV, read-out: Activity
[12] = Inhibition of HIV-1 latency reversal in GFP-fused human J-lat 9.2 cells at 3 uM incubated for 24 hrs in presence of pan-PKC inhibitor Go 6983 by flow cytometry analysis relative to control; format: functional; conditions: Human immunodeficiency virus 1, J-Lat 9.2

CC(=O)O[C@@]12C[C@@H](C)[C@@]3(O)[C@@H](C=C(CO)C[C@]4(O)C(=O)C(C)=C[C@@H]34)[C@@H]1C2(C)C [PROSTRATIN]
inhibition at 10 µM [1]: > 90% | viability at 24 h, 10 µM [2]: 84% | Activity [3]: 685 | fold change (FC) [4]: 2.8 | Activity [5]: 11.1% | Activity [6]: 11.7%

CC(=O)O[C@]1(C)C[C@@H](/C=C(\C)CCC=C(C)C)O[C@@]2(C=C(CO)[C@H]3CC(=O)C(C)=C[C@H]3O2)C1
inhibition at 10 µM [1]: > 90% | Activity [6]: 26.2%

CC1=C[C@H]2O[C@@H]([C@@H]3[C@@]4(C)CCCC(C)(C)[C@@H]4C=C[C@@]3(C)O)C=C(CO)[C@H]2CC1=O
fold change (FC) [7]: 2.7 | Activity [8]: 27.3% | inhibition at 1 µM [9]: > 95% | Activity [10]: 519 | viability at 24 h, 1 µM [11]: 82.4%

CC(=O)O[C@H]1C[C@]2(C)c3cc(C)c(O)cc3C(C)=CC(=O)[C@@H]2[C@@]2(C)CCCC(C)(C)[C@H]12
inhibition at 3 µM [12]: > 95% | Activity [5]: 36.8%
